Experimental data as given in PMC9122897, “SHR1032, a novel STING agonist, stimulates anti-tumor immunity and directly induces AML apoptosis” (Scientific Reports, 2022).

How the values were obtained:
cynomolgus PBMC = test: IFNβ ELISA; assay type: cell-based, cynomolgus monkey; details: 5 h, vs ADU-S100
Description: (§1) Figure 2 SHR1032 specifically and potently activates STING signaling pathway. IRF luciferase reporter assays in (a) THP1-STING-R232, THP1-STING-H232, THP1-STING-HAQ, and THP1-STING-KO cells. Cells were stimulated for 24 h with the indicated STING compounds and assessed for luciferase activity. IFNβ production and activation of cGAS-STING signaling pathway in (b) human THP1-STING-R232, human PBMCs from a donor homozygous for the R232 variant, cynomolgus PBMC, and mouse RAW164.7 macrophage cells were treated with STING agonists for 5 h. IFNβ in media was quantified by human or mouse ELISA kits respectively. (c) THP1-STING-R232 cells and mouse RAW164.7 macrophage cells were stimulated with 40 µM of ADU-S100 or 10 µM of SHR1032 for the indicated time points. The amount of pTBK1, total TBK1, STING and α-tubulin was measured by western blotting.
(§2) Human and Cynomolgous PBMC’s were thawed and spun down in Lymphocyte media (ZENBIO) and resuspended in media to 1.5 x 10^6 cells/ml density. […] Human and monkey IFN-β protein concentration was measured using human IFN-β Quantikine ELISA Kits (R&D Systems) per manufacture’s protocol. Mouse IFN-β was measured using mouse IFN-β Quantikine ELISA Kits (R&D Systems) per manufacture’s protocol. Mouse TNFα, IFN-β and IL-6 in the tumor lysates and plasma was measured by Quantikine ELISA Kits (R&D Systems) per manufacture’s protocol.

THP1-STING-R232 cells [1] = test: IFNβ ELISA; assay type: cell-based, human; details: THP1-STING-R232, 5 h, vs ADU-S100
Description: as §1, §2

[2] = tested on: THP1 reporter cells carrying human STING R232, H232 and HAQ variants; test: IRF luciferase reporter assay in THP1 cells with STING variants; assay type: cell-based; details: compared to cGAMP and ADU-S100; 24 h
Source text: Five haplotypes of human STING have been identified (R232, H232, HAQ, AQ, and Q alleles), which vary at amino acid positions 71, 230, 232, and 293[16]. R232, HAQ and H232 were reported to be the three major alleles. We tested the responsiveness of the human STING alleles to STING agonists in THP1 reporter cells carrying human STING R232, H232 and HAQ variants. […] To examine whether the activities of STING agonists are on-target, we treated THP1-STING-KO reporter cells with the agonists and no luciferase reporter activity was detected, confirming the cellular activity of STING agonists we observed are specific from STING.
Figure 2 SHR1032 specifically and potently activates STING signaling pathway. […] Cells were stimulated for 24 h with the indicated STING compounds and assessed for luciferase activity. […] IFNβ in media was quantified by human or mouse ELISA kits respectively. […] The amount of pTBK1, total TBK1, STING and α-tubulin was measured by western blotting.
(§3) THP1 reporter cells were treated for 24 h with a total of 100 k cells and 150 ul media in each well a 96-well plate. […] Luminescence signal was measured using Tecan infinite M1000. EC50 values were calculated using non-linear regression analysis of GraphPad Prism. Cell growth was monitored by CellTiter-Glo Luminescent Cell Viability Assay (Promega) per manufacture’s protocol. […]

THP1-STING-R232 cells [3] = test: Western blot of TBK1 phosphorylation; assay type: cell-based, human; details: 10 µM SHR1032 vs 40 µM ADU-S100
Description: as §1
as §3, with “protocol. GI50 values were calculated using non-linear regression analysis of GraphPad Prism.” for “protocol.”

[4] = tested on: THP1-IFNAR2-WT and THP1-IFNAR2-KO cells; test: Cell TiterGlo cell viability, IFNAR2 WT versus KO; assay type: cell-based, human; details: THP1-IFNAR2-WT vs -KO
Description: (§4) Figure 5 Cell apoptosis induced by SHR1032 in AML cell lines is independent of type I interferon. (a–d) RNA-Seq analysis of THP1-STING-R232, THP1-STING-KO and MV4-11 AML cells treated with 1 µM of SHR1032 for 4 h. […] (d) ANNEXIN V staining analysis with flow cytometry in MV4-11, MOLM-16, THP1-STING-WT and THP1-STING-KO cells. (e) Cell viability analysis by CellTiter Glo in THP1-IRFAR2-WT or -KO cells.
Type I interferons have been known to drive apoptosis in AML cells. Therefore, the apoptotic effects might be caused by type I interferons generated by STING activation. To address this question, we examined the IFNβ production with ELISA in MV4-11 and MOLM-16 cells stimulated with SHR1032. […] The activity of type I IFNs is mediated by the IFN-α receptor (IFNAR), which consists of two chains: IFNAR1 and IFNAR2. Knockout of the IFNAR2 gene abolishes the cellular response to type I IFNs.
as §3, with “protocol. GI50 values were calculated using non-linear regression analysis of GraphPad Prism.” for “protocol.”

THP1-STING-KO cells = test: Annexin V staining by flow cytometry; assay type: cell-based, human; details: 16 h
Description: as §4
(§5) Cells were incubated with compounds or DMSO for 16 h in a 6-well plate (0.5 × 10^6 cells/well in 2 ml of media). After incubation, cells were collected and washed once in stain buffer (BD Biosciences). Samples were stained with FITC_Annexin V (BioLegend) for 15 min at room temperature. Then the cells were washed twice and resuspended in 200 µl stain buffer, and analyzed with Guava EasyCyte (Millipore).

THP1-STING-WT cells = test: Annexin V staining by flow cytometry; assay type: cell-based, human; details: 16 h, compared to cytarabine
Description: as §4, §5

MV4-11 cells = test: Annexin V staining by flow cytometry; assay type: cell-based, human; details: MV4-11, 16 h; compared to cytarabine
Description: as §4, §5

MOLM-16 cells = test: Annexin V staining by flow cytometry; assay type: cell-based, human; details: MOLM-16, 16 h; compared to cytarabine
Description: as §4, §5

## CCn1nc(C)cc1C(=O)Nc1nc2cc(C(N)=O)cc(OC)c2n1CCC[C@H]1COc2cc(C(N)=O)cc3nc(NC(=O)c4cc(C)nn4CC)n1c23 [SHR1032]
Cynomolgus PBMC
  monkey IFNβ production: lower than that with that of ADU-S100, but still detectable
THP1-STING-R232 cells [1]
  IFNβ induction: much higher level of IFNβ
[2]
  potency in IRF luciferase reporter: much better potency
THP1-STING-R232 cells [3]
  TBK1 phosphorylation: higher level of TBK1 phosphorylation than ADU-S100
[4]
  effect of IFNA receptor deletion on induced cell death: no effect on cell death induced by SHR1032
THP1-STING-KO cells
  apoptosis (Annexin V): no effect
THP1-STING-WT cells
  apoptosis (Annexin V): comparable level of apoptosis
MV4-11 cells
  apoptosis (Annexin V): much higher level of apoptosis
MOLM-16 cells
  apoptosis (Annexin V): much higher level of apoptosis
